In patent publication US12187727B2, “Methods for antagonizing a melanocortin 4 receptor” (Pfizer Inc., priority 2020, dated 2025):
Like-named read-outs stand apart in the source and are kept apart here.

How the values were obtained:
hMC4R = hMC4R (Homo sapiens (Human), UniProt P32245); assay: In vitro binding affinity assay using hMC4R (radioligand competition binding, [125I]-(Nle4, D-Phe7)-α-MSH); conditions: geometric mean
[1] = target: human Melanocortin-4 receptor (MC4R) (Homo sapiens (Human), UniProt P32245); assay: Functional in vitro MC4R antagonist potency assay (cAMP HTRF in CHO cells); assay type: cell-based
In short: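 CHO cells stably expressing human MC4R were preincubated 30 min at 37 °C with compound ([…], 0.1% DMSO), then stimulated 30 min with EC80 αMSH (200 nM). Intracellular cAMP quantified by HTRF competitive immunoassay and normalized to agonist-stimulated and vehicle-only wells.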

[2] = read-out: Ki (nM) geometric mean
[3] = read-out: Kb (nM) Antagonist geometric mean

hMC4R, sequence (P32245 whole entry): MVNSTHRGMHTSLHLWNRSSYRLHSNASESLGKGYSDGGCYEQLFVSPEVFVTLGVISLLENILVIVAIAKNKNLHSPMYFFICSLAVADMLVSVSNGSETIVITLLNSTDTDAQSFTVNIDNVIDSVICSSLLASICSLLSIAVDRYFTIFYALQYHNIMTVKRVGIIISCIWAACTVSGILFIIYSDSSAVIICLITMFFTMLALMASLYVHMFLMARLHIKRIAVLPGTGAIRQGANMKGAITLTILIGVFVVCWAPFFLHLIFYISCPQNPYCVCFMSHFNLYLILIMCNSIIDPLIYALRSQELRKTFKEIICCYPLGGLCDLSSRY
human Melanocortin-4 receptor (MC4R), sequence (P32245 whole entry): as above

Row | Structure (SMILES) | Ki (hMC4R; [2]) [nM] | Kb [1, 3] [nM] | Ki (hMC4R; read-out: Ki (nM) geometric) [nM] | Kb ([1]; human MC4R in CHO cells, cAMP HTRF, 200 nM aMSH challenge, Kb from IC50 by Leff-Dougall equation, geometric mean, read-out: Kb (nM) Antagonist geometric) [nM]
1 | Cc1nc2c(cc1-c1ncccn1)CC[C@@]1(CCN(C(=O)C(C)c3ccc(C(F)(F)F)cc3)C1)N2 (single isomer, unassigned) [Example 8] | 76 | > 95 |  | 
2 | COc1cc([C@@H](C)C(=O)N2CC[C@@]3(CCc4ccc(C)nc4N3)C2)nc(C)n1 (single isomer, unassigned) [Example 26, 2-(6-methoxy-2-methylpyrimidin-4-yl)-1-(7-methyl-3,4-dihydro-1H-spiro[1,8-naphthyridine-2,3′-pyrrolidin]-1′-yl)propan-1-one] | 210 | > 97 |  | 
3 | COc1cc([C@@H](C)C(=O)N2CC[C@@]3(CCc4cc(-c5nnn(C)n5)c(C)nc4N3)C2)nc(C(F)F)n1 (single isomer, unassigned) [Example 128] |  |  | 10 | 3.8
4 | Cc1nc2c(cc1-c1ncccn1)CC[C@@]1(CCN(C(=O)C(C)c3ccc(OC(F)F)nc3)C1)N2 (single isomer, unassigned) [Example 6] | 0.44 | 8.5 |  | 
